We go through three compounds from patent publication US6824770B1, “Adenovirus gene expression system” (Cornell Research Foundation, Inc., priority 1993, dated 2004).

Assay [1] addresses T1, TRH-R (Mus musculus, UniProt P21761).
T1 construct: expressed in transfected cells; host or cells: Infected with AdCMVmTRHR or transfected with pAdCMVmTRHR: HeLa, GHY, AtT-20, C6, CV1, COS-1 and KB cells
It counts as cell-based.

Assay [2] concerns the target T1, TRH-R. In words: methylTRH stimulation of [3H]IP formation (TRH response). It counts as cell-based. The settings on record: uninfected HeLa, GHY, AtT, C6, CV1 and COS-1 cells. As to the method:
(§1) Cells were seeded in wells (3.8 cm^2) pretreated with poly-L-lysine and were incubated in medium supplemented with serum in a humidified atmosphere of 5% CO2. After a minimum of 4 hours, the medium was aspirated and replaced with 0.3 ml of medium without serum, AdCMVmTRHR (300 particles/cell) was added and the cells were incubated at 37° C. After 1 hour, 0.7 to 1.0 ml medium containing serum was added and the incubation continued for 3 to 72 hours. Infection with AdCMVmTRHR was performed in an identical manner for all cell types except that the incubation mediums were different. The mediums were: Dulbecco's modified Eagle's medium supplemented with 5% Nu-Serum for human cervical cancer HeLa cells, monkey kidney Cos-1 and CV-1 cells, and rat glioma C6 cells; Ham's F-10 medium with 15% horse serum and 2.5% fetal bovine serum for rat pituitary tumor GHY cells; Delbecco's modified Eagle's medium with 10% Nu-Serum for mouse pituitary tumor AtT-20 cells; and modified Eagle's medium with 10% fetal bovine serum for human epidermoid KB cells. None of these cell lines express TRH-Rs. […]
Infected or transfected cells were labelled for 24 hours with [^3H]myo-inositol, stimulated with TRH or methylTRH in a balanced salt solution containing 10 mM LiCl and [^3H]IPs were measured as described by Imai et al., 1987, Methods. […]

Another assay deals with T2, mouse TRH-R (Mus musculus, UniProt P21761).
T2 construct: expressed in transfected cells; host or cells: Infected with AdCMVmTRHR or transfected with pAdCMVmTRHR: HeLa, GHY, AtT-20, C6, CV1, COS-1 and KB cells
T2 sequence (P21761 1-393): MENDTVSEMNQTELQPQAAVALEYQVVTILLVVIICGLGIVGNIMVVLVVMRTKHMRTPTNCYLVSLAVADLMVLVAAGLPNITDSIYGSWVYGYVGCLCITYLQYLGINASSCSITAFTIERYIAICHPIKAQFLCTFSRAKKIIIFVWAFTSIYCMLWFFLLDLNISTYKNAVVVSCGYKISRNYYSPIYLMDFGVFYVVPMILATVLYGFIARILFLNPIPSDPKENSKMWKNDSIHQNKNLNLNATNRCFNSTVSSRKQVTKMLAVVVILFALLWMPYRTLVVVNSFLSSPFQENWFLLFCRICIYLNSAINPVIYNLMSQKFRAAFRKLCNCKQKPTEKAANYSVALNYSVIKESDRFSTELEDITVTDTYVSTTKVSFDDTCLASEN
In words: [3H]methylTRH binding to intact AdCMVmTRHR-infected cells. The settings on record: TRH-Rs expressed on cells after infection with AdCMVmTRHR; data not shown; read-out: dissociation constant for methylTRH binding. How it is done:
as §1, with “TRH-Rs. Cells were studied 16 to 24 hours after infection with 300 AdCMVmTRHR particles per cell which yielded maximal TRH-R expression.” for “TRH-Rs.”

In assay [3] the target is T1, TRH-R. The assay can be described thus: Internalization of TRH-Rs (acid-resistant specifically bound [3H]methylTRH). It is filed as cell-based. The settings on record: methylTRH-bound receptors. How it is done:
Cells were seeded in wells (3.8 cm^2) pretreated with poly-L-lysine and were incubated in medium supplemented with serum in a humidified atmosphere of 5% CO2. After a minimum of 4 hours, the medium was aspirated and replaced with 0.3 ml of medium without serum, AdCMVmTRHR (300 particles/cell) was added and the cells were incubated at 37° C. After 1 hour, 0.7 to 1.0 ml medium containing serum was added and the incubation continued for 3 to 72 hours. Infection with AdCMVmTRHR was performed in an identical manner for all cell types except that the incubation mediums were different. The mediums were: Dulbecco's modified Eagle's medium supplemented with 5% Nu-Serum for human cervical cancer HeLa cells, monkey kidney Cos-1 and CV-1 cells, and rat glioma C6 cells; Ham's F-10 medium with 15% horse serum and 2.5% fetal bovine serum for rat pituitary tumor GHY cells; Delbecco's modified Eagle's medium with 10% Nu-Serum for mouse pituitary tumor AtT-20 cells; and modified Eagle's medium with 10% fetal bovine serum for human epidermoid KB cells. None of these cell lines express TRH-Rs. Cells were studied 16 to 24 hours after infection with 300 AdCMVmTRHR particles per cell which yielded maximal TRH-R expression.
Internalization was measured as specifically bound [^3H]methylTRH that was resistant to acid wash (Hinkle et al., 1982, J.Biol. Chem., vol. 257, pp. 5462-5470; and Nussenzveig et al., 1993, J.Biol. Chem., vol. 268, pp. 2389-2392, which disclosures are hereby incorporated by reference). Specific acid resistant binding was calculated by subtracting the nonspecifically bound from the [^3H]methylTRH remaining after acid/salt elution.

Where two headings read alike, the source gives them in different places.

Consider `CCCCCCCCCCCCCC(=O)O[C@@H]1[C@@H](C)[C@@]2(O)[C@@H](C=C(CO)C[C@]3(O)C(=O)C(C)=C[C@@H]23)[C@@H]2C(C)(C)[C@]12OC(C)=O` [PMA], for which the “PMA-induced inhibition of the TRH response” value at TRH-R [1] (AdCMVmTRHR-infected AtT-20 cells, 0.1 μM PMA 60 minutes prior to TRH) worked out at 37±4.0%; on TRH-R [1] (AdCMVmTRHR-infected COS-1 cells, 0.1 μM PMA 60 minutes prior to TRH), 37±8.0%; at TRH-R [1] (AdCMVmTRHR-infected GHY cells, 0.1 μM PMA added 60 minutes prior to TRH) it was 25±4.6%; at TRH-R [1] (AdCMVmTRHR-infected KB cells, 0.1 μM PMA 60 minutes prior to TRH) it was 0±10%.

`NC(=O)[C@@H]1CCCN1C(=O)[C@H](Cc1cnc[nH]1)NC(=O)[C@@H]1CCC(=O)N1` [TRH, thyrotropin-releasing hormone]: at TRH-R [1] (AdCMVmTRHR-infected AtT-20 cells, 60 minutes 1 μM TRH), the “TRH-induced desensitization: decrease of rate of IP formation compared to control” value is given as 41±4.7%. For the same compound, the TRH-induced desensitization entry on TRH-R [1] (AdCMVmTRHR-infected COS-1 cells, 60 minutes 1 μM TRH) is “did not desensitize”; at TRH-R [1] (AdCMVmTRHR-infected KB cells, 60 minutes 1 μM TRH), 0±10%. Further, the “TRH-induced desensitization: decrease of the response to TRH” value on TRH-R [1] (AdCMVmTRHR-infected GHY cells, after 60 minutes of stimulation by 1 μM TRH) amounted to 49±5.2%.

In the case of `Cn1cnc(C[C@H](NC(=O)[C@@H]2CCC(=O)N2)C(=O)N2CCC[C@H]2C(N)=O)c1` [methylTRH], the “response to methylTRH (IP formation) in uninfected cells” value at TRH-R [2] is reported as “did not respond”. Also, the Kd on mouse TRH-R stood at 1.09 ± 0.26 nM. For the same compound, the “TRH-Rs internalized after 60 minutes” value is listed as 62±2.1% on TRH-R [3] (AdCMVmTRHR-infected COS-1 cells (printed COA-1)), 64±7.0% at TRH-R [3] (AdCMVmTRHR-infected GHY cells) and 71±2.6% on TRH-R [3] (AdCMVmTRHR-infected KB cells).
